The assay has as its system D5 fragment in COS7 cells. In words: pRL-D5/TK-luc reporter in COS7 cells with VDR expression vector. Format: cell-based, mouse. The procedure:
FIG. 6. Transcriptional activity of the D5 regions of the RANKL gene in the context of the TK promoter. Sequence surrounding the D5 region (1072 bp) was cloned into the pTK-luciferase vector and termed pTK-RL(D5). […] Cells were harvested after 24 hours and luciferase activity assessed. B) ST2 cells were transfected as in A above but without the VDR expression vector and evaluated as in A. C) COS-7 cells were transfected and evaluated as in A above. Luciferase was normalized using beta-gal activity. Data represent the mean of triplicate determinations (SEM). The pTK-luc control vector was unresponsive to any of the inducers (see FIG. 9). *, p<0.05 vs no treatment control.
The activity of an enhancer must be evaluated in the context of its local environment, preferentially in the context of both other enhancers and its native promoter. In the case of the RANKL gene, however, this is clearly not possible due to the numbers and the distant locations of the potential regulatory regions. […] To ensure that the viral TK promoter background was not contributing to our evaluation, the inventors cloned the mouse RANKL promoter (−100 to +65) into pGL3, inserted RL D5 and evaluated its activity in ST2 cells as well.

On to `C=C1/C(=C\C=C2/CCC[C@]3(C)[C@@H]([C@H](C)CCCC(C)(C)O)CC[C@@H]23)C[C@@H](O)C[C@@H]1O` [1,25(OH)2D3], for which the “stimulation via the D5 fragment in COS7 cells” value was “failed to stimulate”.

The values are drawn from patent US20070117182A1, “Nucleic acids conferring transcriptional responsiveness on the RANKL gene promoter and uses thereof” (Wisconsin Alumni Research Foundation, priority 2005, published 2007).
